Measurements published in PubChem BioAssay (NCI).
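Compound exposure: 48 hours, 5 concentrations, 96-well plates. At the TGI there is no net growth.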

Tests used:
Experiment in all cases: inhibition of tumour cell growth, NCI panel, 48 h
[1] = tested on: HCC-2998 colon
[2] = tested on: T-47D breast
[3] = tested on: UO-31 renal
[4] = tested on: KM12 colon
[5] = tested on: MDA-MB-435
[6] = tested on: UACC-62 melanoma
[7] = tested on: MALME-3M melanoma
[8] = tested on: SF-268 CNS
[9] = tested on: MOLT-4 leukemia
[10] = tested on: HCT-116 colon
[11] = tested on: 786-0 renal
[12] = tested on: SF-539 CNS
[13] = tested on: HCT-15 colon
[14] = tested on: OVCAR-5 ovarian
[15] = tested on: MDA-N
[16] = tested on: BT-549 breast
[17] = tested on: HS 578T breast
[18] = tested on: UACC-257 melanoma
[19] = tested on: EKVX NSCLC
[20] = tested on: DU-145 prostate
[21] = tested on: CAKI-1 renal
[22] = tested on: SN12C renal
[23] = tested on: COLO 205 colon
[24] = tested on: M14 melanoma
[25] = tested on: MDA-MB-231 breast
[26] = tested on: HT29 colon
[27] = tested on: OVCAR-8 ovarian
[28] = tested on: SW-620 colon
[29] = tested on: OVCAR-4 ovarian
[30] = tested on: NCI-H23 lung
[31] = tested on: CCRF-CEM leukemia
[32] = tested on: ACHN renal
[33] = tested on: NCI-H460 lung
[34] = tested on: U251 CNS
[35] = tested on: RPMI-8226 leukemia
[36] = tested on: PC-3 prostate
[37] = tested on: SNB-19 CNS
[38] = tested on: OVCAR-3 ovarian
[39] = tested on: MCF7 breast
[40] = tested on: SK-MEL-28 melanoma
[41] = tested on: HOP-62 NSCLC
[42] = tested on: SK-OV-3 ovarian
[43] = tested on: SK-MEL-5 melanoma
[44] = tested on: IGROV1 ovarian
[45] = tested on: A498 renal
[46] = tested on: A549 NSCLC
[47] = tested on: NCI/ADR-RES ovarian
[48] = tested on: HL-60(TB) leukemia
[49] = tested on: SNB-75 CNS
[50] = tested on: NCI-H522 lung
[51] = tested on: TK-10 renal
[52] = tested on: SF-295 CNS
[53] = tested on: NCI-H226 lung

Compound: CC(=O)OCCC[C@@H]1C(=C(C)C)CCC2[C@@]1(C)CC[C@@]1(C)C[C@](C)(CCC=C(C)C)CC[C@]21C (stereo partly drawn)
- TGI [1]: > 100 µM
- TGI [2]: > 100 µM
- TGI [3]: 46.1 µM
- TGI [4]: > 100 µM
- TGI [5]: > 100 µM
- TGI [6]: > 100 µM
- TGI [7]: > 100 µM
- TGI [8]: > 100 µM
- TGI [9]: > 100 µM
- TGI [10]: > 100 µM
- TGI [11]: > 100 µM
- TGI [12]: > 100 µM
- TGI [13]: > 100 µM
- TGI [14]: > 100 µM
- TGI [15]: > 100 µM
- TGI [16]: > 100 µM
- TGI [17]: > 100 µM
- TGI [18]: > 100 µM
- TGI [19]: > 100 µM
- TGI [20]: > 100 µM
- TGI [21]: > 100 µM
- TGI [22]: > 100 µM
- TGI [23]: > 100 µM
- TGI [24]: > 100 µM
- TGI [25]: > 100 µM
- TGI [26]: > 100 µM
- TGI [27]: > 100 µM
- TGI [28]: > 100 µM
- TGI [29]: > 100 µM
- TGI [30]: > 100 µM
- TGI [31]: > 100 µM
- TGI [32]: > 100 µM
- TGI [33]: > 100 µM
- TGI [34]: > 100 µM
- TGI [35]: > 100 µM
- TGI [36]: > 100 µM
- TGI [37]: > 100 µM
- TGI [38]: > 100 µM
- TGI [39]: > 100 µM
- TGI [40]: > 100 µM
- TGI [41]: > 100 µM
- TGI [42]: > 100 µM
- TGI [43]: > 100 µM
- TGI [44]: > 100 µM
- TGI [45]: > 100 µM
- TGI [46]: > 100 µM
- TGI [47]: > 100 µM
- TGI [48]: > 100 µM
- TGI [49]: > 100 µM
- TGI [50]: > 100 µM
- TGI [51]: 0.0632 µM
- TGI [52]: > 100 µM
- TGI [53]: > 100 µM
